Source: patent US9725442B2, “Heterocyclic derivative having PGD2 receptor antagonist activity” (Shionogi & Co., Ltd., priority 2011, dated 2017)
pIC50, pKi: −log10 of the molar value. Like-named read-outs stand apart in the source and are kept apart here.

Key:
Human DP1 receptor = Human DP1 receptor (Homo sapiens (Human), UniProt Q13258); experiment: Human DP1 inhibitory activity in DP1-expressing cell (PGD2-induced cAMP); format: cell-based
Procedure: Compounds were categorized as AA (cAMP is less than 100 nM) and A (cAMP is more than 100 nM and less than 5000 nM) as shown in Table 99 and 100.

CRTH2 = CRTH2 (Homo sapiens (Human), UniProt Q9Y5Y4); experiment: CRTH2 receptor binding inhibitory activity ([3H]-PGD2 displacement, membranes of CRTH2-expressing K562 cell)
Outline: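 Incubation ran 60 min at room temperature using 20 μg/well membrane from CRTH2-expressing K562 cells in pH 7.4 Tris/HCl (50 mM) with 10 mM MgCl2.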

[1] = category of cAMP IC50, human DP1 receptor expressing Jurkut cell
[2] = CRTH2 receptor binding, [3H]-PGD2 displacement, membrane of CRTH2-expressing K562 cell, categorized AAAA/AAA, read-out: Ki
[3] = [3H]-PGD2 displacement, membrane of CRTH2-expressing K562 cell, read-out: Ki
[4] = IC50 of PGD2 (60 nM)-induced cAMP increase, human DP1 receptor expressing Jurkut cell

Chain of CRTH2 (Q9Y5Y4 whole entry): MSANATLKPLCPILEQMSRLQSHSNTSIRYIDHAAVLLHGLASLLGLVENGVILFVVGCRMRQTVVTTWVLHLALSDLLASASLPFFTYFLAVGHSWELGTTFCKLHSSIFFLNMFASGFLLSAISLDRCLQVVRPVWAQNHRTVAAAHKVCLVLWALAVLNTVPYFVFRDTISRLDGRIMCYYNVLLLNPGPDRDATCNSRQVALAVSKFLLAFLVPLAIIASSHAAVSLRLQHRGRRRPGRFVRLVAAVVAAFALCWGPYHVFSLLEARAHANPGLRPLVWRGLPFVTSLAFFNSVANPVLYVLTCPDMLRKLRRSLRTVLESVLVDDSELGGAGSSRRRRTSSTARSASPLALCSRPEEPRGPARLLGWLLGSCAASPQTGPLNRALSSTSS
Chain of Human DP1 receptor (Q13258 whole entry): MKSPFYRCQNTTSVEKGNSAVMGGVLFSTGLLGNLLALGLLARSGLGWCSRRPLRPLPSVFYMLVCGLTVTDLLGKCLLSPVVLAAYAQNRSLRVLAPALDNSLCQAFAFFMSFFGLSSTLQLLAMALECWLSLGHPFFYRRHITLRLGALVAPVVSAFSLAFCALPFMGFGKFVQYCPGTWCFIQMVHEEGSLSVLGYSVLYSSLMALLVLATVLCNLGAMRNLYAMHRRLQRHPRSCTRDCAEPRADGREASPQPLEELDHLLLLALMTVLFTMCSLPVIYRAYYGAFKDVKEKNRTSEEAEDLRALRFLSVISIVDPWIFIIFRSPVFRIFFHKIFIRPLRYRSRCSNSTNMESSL

SMILES	pIC50 (Human DP1 receptor; [1])	pKi (CRTH2; [2])	pKi (CRTH2; [3])	pIC50 (Human DP1 receptor; [4])	pKi (CRTH2)
CC(C)Oc1ccc(S(=O)(=O)N2C[C@H](n3nc(CC(=O)O)c4ccc(F)cc43)C[C@H]2c2ccccc2)cc1 [Compound I-359]	5.30 to 7.00	> 7.00			
CC(C)Oc1ccc(S(=O)(=O)N2C[C@H](n3nc(CC(=O)O)c4ccc(Cl)cc43)C[C@@H]2C)cc1 [Compound I-95]	> 7.00	> 7.00			
CCOc1ncc(S(=O)(=O)N2C[C@@H](C)[C@@H](n3nc(CC(=O)O)c4ccc(C)cc43)C2)s1 [Compound I-170]	> 7.00	> 7.00			
CCOc1ccc(S(=O)(=O)N2C[C@H](n3nc(CC(=O)O)c4ccccc43)[C@H](C)[C@H]2C#N)cc1 [Compound I-332]	5.30 to 7.00	> 7.00			
CCOc1ccc(S(=O)(=O)N2C[C@@H](C)[C@@H](n3nc(CC(=O)O)c4ccc(C)cc43)C2)s1 [Compound I-171]	> 7.00	> 7.00			
COc1ccccc1OC[C@H]1C[C@@H](n2nc(CC(=O)O)c3ccc(F)cc32)CN1S(=O)(=O)c1ccc(OC(C)C)cc1 [Compound I-344]	> 7.00	5.30 to 7.00			
CC(C)Oc1ccc(S(=O)(=O)N2C[C@H](n3nc(CC(=O)O)c4ccc(F)cc43)C[C@H]2c2ccccn2)cc1 [Compound I-357]	5.30 to 7.00	5.30 to 7.00			
CC(C)Oc1ccc(S(=O)(=O)N2C[C@H](n3nc(CC(=O)O)c4ccc(F)cc43)C[C@@H]2C(F)F)cc1 [Compound I-22]	> 7.00	> 7.00			
C[C@@H]1CN(S(=O)(=O)c2ccc(OC(F)F)cc2)C[C@H]1n1nc(CC(=O)O)c2ccccc21 [Compound I-195]	5.30 to 7.00	> 7.00			
Cc1ccc(S(=O)(=O)N2C[C@@H](C)[C@@H](n3nc(CC(=O)O)c4ccc(F)cc43)C2)cc1 [Compound I-117]	5.30 to 7.00	> 7.00	8.80		
CCOc1ccc(S(=O)(=O)N2C[C@H](C)[C@@H](n3nc(CC(=O)O)c4ccccc43)C2)cc1 [Compound I-198]	5.30 to 7.00	> 7.00			
CC(C)Oc1ccc(S(=O)(=O)N2C[C@@H](C)[C@@H](n3nc(CC(=O)NS(C)(=O)=O)c4ccc(F)cc43)C2)cc1 [Compound I-138]	5.30 to 7.00	> 7.00	7.19		
CC(C)Oc1ccc(S(=O)(=O)N2C[C@H](n3nc(CC(=O)O)c4ccc(F)cc43)C[C@H]2C(=O)N(C)C)cc1 [Compound I-5]	5.30 to 7.00	5.30 to 7.00			
CCOc1ccc(S(=O)(=O)N2C[C@H](n3nc(CC(=O)O)c4ccccc43)[C@@H](C)[C@@H]2C(N)=O)cc1 [Compound I-298]	5.30 to 7.00	5.30 to 7.00			
CCOc1ccc(S(=O)(=O)N2C[C@@H](C)[C@@H](n3nc(CC(=O)O)c4ccc(C(F)(F)F)cc43)C2)cc1 [Compound I-129]	> 7.00	> 7.00			
CCOc1ccc(S(=O)(=O)N2C[C@H](n3nc(CC(=O)O)c4ccccc43)C[C@@H]2C)cc1 [Compound I-196]	> 7.00	> 7.00			
CC(C)Oc1ccc(S(=O)(=O)N2C[C@H](n3nc(CC(=O)O)c4ccc(F)cc43)[C@@](C)(O)C2)cc1 [Compound I-84]	5.30 to 7.00	> 7.00			
COc1ccc(S(=O)(=O)N2C[C@H](n3nc(CC(=O)O)c4ccccc43)[C@@](C)(F)C2)cn1 (racemic) [Compound I-208]	5.30 to 7.00	> 7.00			

SMILES	pIC50 (Human DP1 receptor; [1])	pKi (CRTH2; [2])	pKi (CRTH2; [3])	pIC50 (Human DP1 receptor; [4])	pKi (CRTH2)
CC(C)Oc1ccc(S(=O)(=O)N2C[C@H](n3nc(CC(=O)O)c4ccc(F)cc43)C[C@@H]2COc2ccc(O)cc2)cc1 [Compound I-347]	> 7.00	5.30 to 7.00			
CCOc1ccc(S(=O)(=O)N2C[C@@H](C)[C@@H](n3nc(CC(=O)O)c4ccc(C5=CCCCC5)cc43)C2)cn1 [Compound I-221]	> 7.00	> 7.00			
CC(C)Oc1ccc(S(=O)(=O)N2C[C@H](n3nc(CC(=O)O)c4ccc(F)cc43)C[C@@H]2COc2nc3ccccc3s2)cc1 [Compound I-334]	> 7.00	5.30 to 7.00			
CC1Cc2cc(S(=O)(=O)N3C[C@@H](C)[C@@H](n4nc(CC(=O)O)c5ccccc54)C3)ccc2O1 (some centres unmarked) [Compound I-153]	> 7.00	> 7.00	7.19		
CC(C)Oc1ccc(S(=O)(=O)N2C[C@H](n3nc(CC(=O)O)c4ccc(F)cc43)C[C@H]2C)cc1 [Compound I-10]	5.30 to 7.00	> 7.00	8.09		
CC(C)OCCOc1ccc(S(=O)(=O)N2C[C@@H](C)[C@@H](n3nc(CC(=O)O)c4ccccc43)C2)cc1 [Compound I-190]	5.30 to 7.00	> 7.00			
Cc1c(CC(=O)O)c2ccccc2n1[C@@H]1C[C@H](C)N(S(=O)(=O)c2ccc(F)cc2)C1 [Compound I-317]	5.30 to 7.00	5.30 to 7.00			
CC(C)Oc1ccc(S(=O)(=O)N2C[C@H](n3nc(CC(=O)O)c4ccc(F)cc43)C[C@@H]2COc2cccc(F)c2)cc1 [Compound I-303]	> 7.00	5.30 to 7.00			
CCOc1ccc(S(=O)(=O)N2C[C@@H](C)[C@@H](n3nc(CC(=O)O)c4ccc(Cl)cc43)C2)cc1 [Compound I-137]	> 7.00	> 7.00			
CC(C)Oc1ccc(S(=O)(=O)N2C[C@H](n3nc(CC(=O)O)c4ccc(F)cc43)C[C@@H]2COCCCO)cc1 [Compound I-342]	5.30 to 7.00	5.30 to 7.00			
C[C@@H]1CN(S(=O)(=O)c2ccc(C3CC3)cc2Cl)C[C@@H]1n1nc(CC(=O)O)c2ccc(F)cc21 [Compound I-53]	> 7.00	> 7.00			
CC(C)Oc1ccc(S(=O)(=O)N2[C@@H]3CC[C@H]2C[C@@H](n2nc(CC(=O)O)c4ccc(F)cc42)C3)cc1 [Compound I-83]	> 7.00				5.30 to 7.00
C[C@@H]1CN(S(=O)(=O)c2ccc(C3CC3)cc2)C[C@@H]1n1nc(CC(=O)O)c2ccc(F)cc21 [Compound I-113]	> 7.00	> 7.00	7.77		
CC(C)Oc1ccc(S(=O)(=O)N2C[C@@H](C)[C@@H](n3nc(Cc4nnn[nH]4)c4ccc(F)cc43)C2)cc1 [Compound I-157]	5.30 to 7.00	5.30 to 7.00	6.57		
CC(C)Oc1ccc(S(=O)(=O)N2C[C@H](n3nc(CC(=O)O)c4ccc(F)cc43)C[C@@H]2C(N)=O)cc1 [Compound I-3]	5.30 to 7.00	5.30 to 7.00		6.46	
CCOc1ccc(S(=O)(=O)N2C[C@@H](C)[C@@H](n3nc(CC(=O)O)c4ccc(C)cc43)C2)cc1 [Compound I-109]	> 7.00	> 7.00			
COc1ccc(S(=O)(=O)N2C[C@@H](C)[C@@H](n3nc(CC(=O)O)c4ccc(C)cc43)C2)cc1 [Compound I-230]	> 7.00	> 7.00			

Now from value to compound, other results behind:

pIC50 (Human DP1 receptor; [1])	pKi (CRTH2; [2])	pKi (CRTH2; [3])	pIC50 (Human DP1 receptor; [4])	SMILES	pKi (CRTH2)
> 7.00	> 7.00			CCOc1ncc(S(=O)(=O)N2C[C@@H](C)[C@@H](n3nc(CC(=O)O)c4ccccc43)C2)s1 [Compound I-168]	
> 7.00	> 7.00			CCOc1ccc(S(=O)(=O)N2C[C@@H](C)[C@@H](n3nc(CC(=O)O)c4ccc(Cl)cc43)C2)cn1 [Compound I-143]	
> 7.00	> 7.00			CC(C)Oc1ccc(S(=O)(=O)N2C[C@H](n3nc(CC(=O)O)c4ccc(F)cc43)C[C@@H]2CCc2ccccc2)cc1 [Compound I-343]	
5.30 to 7.00	5.30 to 7.00			CC(C)Oc1ccc(S(=O)(=O)N2C[C@@H](n3nc(CC(=O)O)c4ccc(F)cc43)C[C@@H]2c2ccccc2F)cc1 [Compound I-301]	
5.30 to 7.00	> 7.00			CCOc1ccc(S(=O)(=O)N2C[C@H](n3nc(CC(=O)O)c4ccccc43)C(C)(C)C2)cc1 [Compound I-356]	
> 7.00	> 7.00			CC(C)Oc1ccc(S(=O)(=O)N2C[C@@H](C)[C@@H](n3nc(CC(=O)O)c4c(F)cccc43)C2)cc1 [Compound I-263]	
5.30 to 7.00	> 7.00			C[C@H]1CN(S(=O)(=O)c2ccc(OC(F)F)cc2)C[C@@H]1n1nc(CC(=O)O)c2ccccc21 [Compound I-194]	
5.30 to 7.00	5.30 to 7.00			CCOCCCOc1ccc(S(=O)(=O)N2C[C@@H](C)[C@@H](n3nc(CC(=O)O)c4ccccc43)C2)cc1 [Compound I-273]	
> 7.00	> 7.00			C[C@@H]1CN(S(=O)(=O)c2ccc(OC(F)F)cc2)C[C@@H]1n1nc(CC(=O)O)c2ccc(F)cc21 [Compound I-107]	
5.30 to 7.00	5.30 to 7.00			C[C@H]1CN(S(=O)(=O)c2ccc(OC(F)F)cc2)C[C@H]1n1nc(CC(=O)O)c2ccc(F)cc21 [Compound I-136]	
> 7.00	> 7.00			Cc1ccc2c(CC(=O)O)nn([C@@H]3C[C@H](C)N(S(=O)(=O)c4ccc(OC(C)C)cc4)C3)c2c1 [Compound I-94]	
> 7.00	> 7.00	8.09	7.49	CCOc1ccc(S(=O)(=O)N2C[C@@H](C)[C@@H](n3nc(CC(=O)O)c4ccc(C5=CCCCC5)cc43)C2)cc1 [Compound I-220]	
> 7.00		8.51		Cc1ccc2c(CC(=O)O)nn([C@H]3CN(S(=O)(=O)c4ccc(OC(C)C)cc4)C[C@H]3C)c2c1 [Compound I-63]	
5.30 to 7.00	> 7.00			CCOc1ccc(S(=O)(=O)N2C[C@@H](C)[C@@H](n3nc(CC(=O)O)c4ccc(OC)cc43)C2)cn1 [Compound I-226]	
> 7.00	> 7.00			COc1ccc(S(=O)(=O)N2C[C@@H](C)[C@@H](n3nc(CC(=O)O)c4ccc(F)cc43)C2)cc1 [Compound I-112]	
5.30 to 7.00	> 7.00	7.40	7.00	Cc1ccc(S(=O)(=O)N2C[C@@H](C)[C@@H](n3c(C)c(CC(=O)O)c4ccccc43)C2)cc1 [Compound I-288]	
